Measured values published in US10647738B2, “Xylene-based amphiphilic compound and use thereof” (Industry-University Cooperation Foundation Hanyang …, priority 2016, dated 2020).
Where “and” joins values, the source holds several entries; their conditions need not be identical. Equal entries are not always repeated. Entries after “also recorded” stand apart in the source; their conditions may differ.

Key:
[1] = Critical micelle concentration by fluorescence staining with diphenylhexatriene (DPH); format: physicochemical; details: aqueous solution
Experimental: While a method for measuring CMC is not particularly limited, a method widely known in the art may be used, and the measurement may be performed by, for example, a fluorescence staining method using diphenylhexatriene (DPH).
(§1) Specifically, the critical micellar concentration (CMC) was measured using fluorescence staining and diphenylhexatriene (DPH), and the hydrodynamic radii (Rh) of the micelles formed by agents were measured through a dynamic light scattering (DLS) experiment. The measured results are shown in Tables 1 and 2, compared with a conventional amphiphilic molecule (detergent), DDM.

[2] = Hydrodynamic radius and size distribution of micelles by dynamic light scattering (DLS); format: physicochemical
Experimental: A method for measuring the radius of a micelle is not particularly limited, but a method well known in the art may be used, and for example, the measurement may be performed using a dynamic light scattering (DLS) experiment.
as §1

boron transporter (Bor1) = target: T1, boron transporter (Bor1) (Arabidopsis thaliana, UniProt Q8VYR7); test: Bor1 structural stability in detergent solution, CPM assay; details: CMC+0.04 wt % and CMC+0.2 wt %; two hours at 40° C.
T1 construct: GFP-His (TEV-cleavable) (C, cleaved yes); made in house; host or cells: S. cerevisiae
Experimental: An experiment for measuring the structural stability of a boron transporter (Bor1) in an aqueous solution due to P-XMAs was performed. The Bor1 structural stability was measured using a CPM assay, and concentrations of P-XMAs and DDM were estimated by measuring relative amounts of folded proteins at CMC+0.04 wt % (a) and CMC+0.2 wt % (b) to analyze Bor1 protein stability according to the concentration of an amphiphilic molecule.
Specifically, Bor1 was expressed as a fusion protein with a C-terminal GFP-His tag in S. cerevisiae. All steps were carried out at 4° C. A Bor1-containing membrane was resuspended with PBS (pH 7.4), 100 mM NaCl, and 10% glycerol and solubilized in 1% DDM for 1 hour with gentle stirring, followed by ultracentrifugation at 200,000 g for 45 minutes. The supernatant was adjusted with 10 mM imidazole, and applied to two 5 ml Ni^2+-NTA columns pre-equilibrated with Buffer A (PBS (pH 7.4), 100 mM NaCl, 10% glycerol, 0.03% DDM) supplemented with 10 mM imidazole. The column was washed with 5 CV of Buffer A supplemented with 30 mM imidazole, and washed with 5 CV of Buffer A supplemented with 50 mM imidazole, followed by elution in Buffer A supplemented with 500 mM imidazole. […] A clear plate cover was added, and the fluorescence of each well was monitored at 40° C. for 120 minutes.

[3] = target: T2, melibiose permease (MelB) (Salmonella typhimurium, UniProt P30878); test: MelB extraction from membranes and thermostability, SDS-PAGE and western blotting; details: 1.5 wt % detergent, 90 minutes
T2 construct: made in house; host or cells: Salmonella typhimurium DW2 cells (ΔmelB and ΔlacZY) (so in the source); membrane preparation
Experimental: An experiment for measuring the structural stability of the Salmonella typhimurium melibiose permease (MelB) protein due to XMAs was performed. The MelB protein was extracted on a membrane using XMAs and DDM, and the amount and structure of the extracted protein were analyzed by SDS-PAGE and western blotting. A concentration of the used compound was 1.5 wt %, and the protein was extracted at a different temperature (0, 45, 55, or 65° C.) to evaluate two kinds of performance such as protein extraction efficiency and stabilization ability of the compound at the same time. Membrane samples that were not treated with XMAs or DDM were used as controls.
Specifically, MelBSt stability due to DDM and XMAs was evaluated according to the method described in the paper (P. S. Chae, et al., Nat. Methods 2010, 7, 1003-1008) written by the inventor in 2010. The protein (MelBSt) was produced using plasmid pK95ΔAHB/WT MelBSt/CH10 encoding wild-type MelB with a 10-His tag at the C-terminus and Salmonella typhimurium DW2 cells (ΔmelB and ΔlacZY). Cell growth and membrane preparation were carried out according to the method described in the paper (Nat. Commun. 2014, 5, 3009) written by A. S. Ethayathulla et al. A protein assay was performed using a Micro BCA kit (Thermo Scientific, Rockford, Ill.). To measure solubilization/stability, MelBSt-containing membrane samples (final protein concentration of 10 mg/mL) were incubated with a solubilization buffer (20 mM sodium phosphate, pH 7.5, 200 mM NaCl, 10% glycerol, 20 mM melibiose) and 1.5% (w/v) DDM, P-XMAs (P-XMA-C8, P-XMA-C9, P-XMA-C10, P-XMA-C11 and P-XMA-C12), M-XMAs (M-XMA-C11, M-XMA-C12, M-XMA-C14, M-XMA-C16 and M-XMA-C18) or O-XMAs (O-XMA-C11, O-XMA-C12, O-XMA-C14, O-XMA-C16 and O-XMA-C18) at four different temperatures (0, 45, 55 and 65° C.) for 90 minutes. Following ultracentrifugation at 355,590 g in a Beckman Optima™ MAX ultracentrifuge using a TLA-100 rotor for 45 minutes at 4° C., 20 μg proteins were separated by SDS-16% PAGE, and then immunoblotted with a Penta-His-HRP antibody (Qiagen, Germantown, Md.). MelBSt was detected using a SuperSignal West Pico chemiluminescent substrate by an ImageQuant LAS 4000 Biomolecular Imager (GE Health Care Life Sciences).

[4] = target: T3, human β2 adrenergic receptor (β2AR) (Homo sapiens, UniProt P07550); test: mBBr-β2AR fluorescence spectrum after dilution to CMC or less; format: biochemical; details: diluted with NH buffer, 30 minutes
T3 construct: made in house
Experimental: An experiment for comparing changes in protein structures of XMAs and DDM at CMC or less of an amphiphilic molecule was carried out.
Specifically, 0.5 μl of an unliganded mBB-labeled receptor solubilized in 20×CMC P-XMA-C11 or P-XMA-C12 at 50 μM was diluted with 500 μl of a NH buffer (20 mM HEPES pH 7.5, 100 mM NaCl). The protein was incubated for 30 minutes, and the mBBr spectrum was measured. The receptor solubilized in 0.1% DDM was diluted with a NH buffer, and used as a control.

T2 sequence (P30878 whole entry): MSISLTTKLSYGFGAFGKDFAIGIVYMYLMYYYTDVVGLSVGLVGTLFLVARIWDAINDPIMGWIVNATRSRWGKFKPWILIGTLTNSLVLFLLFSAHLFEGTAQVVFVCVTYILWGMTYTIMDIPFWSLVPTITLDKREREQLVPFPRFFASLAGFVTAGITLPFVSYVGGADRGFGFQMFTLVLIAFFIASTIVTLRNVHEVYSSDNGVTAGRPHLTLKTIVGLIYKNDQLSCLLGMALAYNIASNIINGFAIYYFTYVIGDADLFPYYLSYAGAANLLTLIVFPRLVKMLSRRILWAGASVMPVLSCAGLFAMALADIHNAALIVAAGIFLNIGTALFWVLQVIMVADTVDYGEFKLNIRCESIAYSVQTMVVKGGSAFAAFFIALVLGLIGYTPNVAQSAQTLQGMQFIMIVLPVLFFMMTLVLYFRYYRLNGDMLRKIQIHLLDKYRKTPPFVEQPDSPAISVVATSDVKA
T3 sequence (P07550 whole entry): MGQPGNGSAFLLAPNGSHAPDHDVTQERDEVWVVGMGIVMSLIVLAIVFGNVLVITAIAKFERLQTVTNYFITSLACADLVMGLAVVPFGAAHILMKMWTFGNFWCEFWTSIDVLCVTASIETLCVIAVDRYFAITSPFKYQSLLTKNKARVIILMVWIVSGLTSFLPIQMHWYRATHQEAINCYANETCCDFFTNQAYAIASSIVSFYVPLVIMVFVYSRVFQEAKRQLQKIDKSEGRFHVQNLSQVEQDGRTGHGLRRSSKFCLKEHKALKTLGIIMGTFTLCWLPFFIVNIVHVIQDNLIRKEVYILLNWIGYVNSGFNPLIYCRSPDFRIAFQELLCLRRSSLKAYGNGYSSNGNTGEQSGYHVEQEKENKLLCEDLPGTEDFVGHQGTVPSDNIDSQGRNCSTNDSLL
T1 sequence (Q8VYR7 whole entry, species assumed): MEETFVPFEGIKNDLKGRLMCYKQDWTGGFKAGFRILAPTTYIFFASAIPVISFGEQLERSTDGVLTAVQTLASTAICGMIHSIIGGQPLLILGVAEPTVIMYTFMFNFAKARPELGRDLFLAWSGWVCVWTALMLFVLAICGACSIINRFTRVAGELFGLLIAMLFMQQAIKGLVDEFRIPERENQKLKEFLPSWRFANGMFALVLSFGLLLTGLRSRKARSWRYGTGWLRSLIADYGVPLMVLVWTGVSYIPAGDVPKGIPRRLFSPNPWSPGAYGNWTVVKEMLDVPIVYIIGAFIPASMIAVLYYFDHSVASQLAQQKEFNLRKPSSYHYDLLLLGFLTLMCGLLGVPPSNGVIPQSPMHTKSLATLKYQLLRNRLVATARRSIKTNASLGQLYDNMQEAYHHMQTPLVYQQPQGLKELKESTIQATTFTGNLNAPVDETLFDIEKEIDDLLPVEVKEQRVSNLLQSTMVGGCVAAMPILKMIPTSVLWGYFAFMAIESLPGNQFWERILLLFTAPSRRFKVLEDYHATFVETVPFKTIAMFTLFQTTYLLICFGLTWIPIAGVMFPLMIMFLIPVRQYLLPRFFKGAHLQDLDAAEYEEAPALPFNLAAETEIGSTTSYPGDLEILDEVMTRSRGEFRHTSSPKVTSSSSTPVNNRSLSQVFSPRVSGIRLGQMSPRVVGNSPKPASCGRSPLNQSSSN

CCCCCCCCCCCCO[C@@H]1O[C@H](CO)[C@@H](O[C@H]2O[C@H](CO)[C@@H](O)[C@H](O)[C@H]2O)[C@H](O)[C@H]1O [DDM, n-dodecyl-β-D-maltopyranoside, reference compound]
CMC [1]: ~170 µM | CMC (wt %) [1]: ~0.0087 wt % | Rh (nm), hydrodynamic radius of micelles ([2]; 1.0 wt % stated for M-/O-XMAs (FIG. 37)): 3.4 nm and 3.4 ± 0.02 nm | size distribution of micelles (number of micelle sets) ([2]; FIGS. 36 and 37): one set of micelles | Bor1 structural stability (relative amount of folded protein) (boron transporter (Bor1)): most instable state | MelB protein extraction efficiency ([3]; 0° C.): high protein extraction efficiency | MelB protein extraction efficiency ([3]; 45° C.): high protein extraction efficiency | MelB protein extraction / maintained solubilization ([3]; 55° C.): hardly observed; also recorded: failed to maintain the solubilization of MelB | MelB protein extraction ([3]; 65° C.): did not extract the protein | structural change of β2AR on dilution to CMC or less [4]: clear structural change due to dilution
